Reference: PubChem BioAssay (NCI)
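Compound exposure: 48 hours, 5 concentrations, 96-well plates. TGI marks complete inhibition of growth.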

What was measured:
Test in all cases: NCI anticancer screen, dose series, 48 h
[1] = tested on: LOX IMVI melanoma
[2] = tested on: SF-295 CNS
[3] = tested on: SK-MEL-5 melanoma
[4] = tested on: M14 melanoma
[5] = tested on: SF-539 CNS
[6] = tested on: ACHN renal
[7] = tested on: NCI/ADR-RES ovarian
[8] = tested on: T-47D breast
[9] = tested on: HL-60(TB) leukemia
[10] = tested on: UACC-62 melanoma
[11] = tested on: HOP-62 NSCLC
[12] = tested on: OVCAR-4 ovarian
[13] = tested on: K-562 leukemia
[14] = tested on: 786-0 renal
[15] = tested on: BT-549 breast
[16] = tested on: HOP-92 NSCLC
[17] = tested on: CAKI-1 renal
[18] = tested on: SN12C renal
[19] = tested on: SNB-19 CNS
[20] = tested on: OVCAR-5 ovarian
[21] = tested on: EKVX NSCLC
[22] = tested on: A549 NSCLC
[23] = tested on: MDA-MB-231 breast
[24] = tested on: HS 578T breast
[25] = tested on: NCI-H522 lung
[26] = tested on: IGROV1 ovarian
[27] = tested on: HCT-15 colon
[28] = tested on: MDA-N
[29] = tested on: SK-MEL-2 melanoma
[30] = tested on: MALME-3M melanoma
[31] = tested on: UO-31 renal
[32] = tested on: OVCAR-8 ovarian
[33] = tested on: A498 renal
[34] = tested on: KM12 colon
[35] = tested on: SK-MEL-28 melanoma
[36] = tested on: HT29 colon
[37] = tested on: NCI-H226 lung
[38] = tested on: SF-268 CNS
[39] = tested on: NCI-H23 lung
[40] = tested on: COLO 205 colon
[41] = tested on: SW-620 colon
[42] = tested on: MDA-MB-435
[43] = tested on: HCT-116 colon
[44] = tested on: CCRF-CEM leukemia
[45] = tested on: HCC-2998 colon
[46] = tested on: RXF 393 renal
[47] = tested on: RPMI-8226 leukemia
[48] = tested on: TK-10 renal
[49] = tested on: MOLT-4 leukemia
[50] = tested on: DU-145 prostate
[51] = tested on: U251 CNS
[52] = tested on: UACC-257 melanoma
[53] = tested on: OVCAR-3 ovarian
[54] = tested on: PC-3 prostate
[55] = tested on: MCF7 breast
[56] = tested on: SK-OV-3 ovarian
[57] = tested on: SNB-75 CNS
[58] = tested on: NCI-H460 lung
[59] = tested on: SR leukemia

Measured: TGI

COC(=O)[C@@H](Nc1ccccc1)[C@@]1(C(=O)OC)SC12c1ccccc1-c1ccccc12
62.5 µM: [25]
not listed: [56] | [57] | [58] | [59]
> 100 µM: all other assays above

c1ccc(N=C2SC(c3ccccc3)(c3ccccc3)c3ccccc32)cc1
not listed: [59]
> 100 µM: all other assays above

Cc1cn(CCOCCOC(=O)NC(CCCN=C(N)N)C(=O)O)c(=O)[nH]c1=O (configuration not stated)
not listed: [3] | [17] | [25] | [30] | [32]
> 100 µM: all other assays above
